According to PubChem BioAssay (NCI):
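Grown in 96-well plates, cells were treated for 48 hours with each compound at five concentrations. Insufficient inhibition: endpoint recorded as highest concentration tested. TGI: concentration producing complete growth inhibition.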

Assays:
Experiment in all cases: NCI tumour cell line growth inhibition, 48 h
SK-MEL-28 melanoma = test system: SK-MEL-28 melanoma
SW-620 colon = test system: SW-620 colon
IGROV1 ovarian = test system: IGROV1 ovarian
OVCAR-4 ovarian = test system: OVCAR-4 ovarian
SNB-19 CNS = test system: SNB-19 CNS
UACC-62 melanoma = test system: UACC-62 melanoma
UO-31 renal = test system: UO-31 renal
OVCAR-5 ovarian = test system: OVCAR-5 ovarian
A549 NSCLC = test system: A549 NSCLC
M19-MEL melanoma = test system: M19-MEL melanoma
ACHN renal = test system: ACHN renal
SF-268 CNS = test system: SF-268 CNS
SR leukemia = test system: SR leukemia
SNB-78 CNS = test system: SNB-78 CNS
HOP-92 NSCLC = test system: HOP-92 NSCLC
TK-10 renal = test system: TK-10 renal
786-0 renal = test system: 786-0 renal
M14 melanoma = test system: M14 melanoma
K-562 leukemia = test system: K-562 leukemia
SK-MEL-5 melanoma = test system: SK-MEL-5 melanoma
OVCAR-3 ovarian = test system: OVCAR-3 ovarian
SK-OV-3 ovarian = test system: SK-OV-3 ovarian
U251 CNS = test system: U251 CNS
LXFL 529 NSCLC = test system: LXFL 529 NSCLC
MOLT-4 leukemia = test system: MOLT-4 leukemia
RXF 393 renal = test system: RXF 393 renal
HCC-2998 colon = test system: HCC-2998 colon
COLO 205 colon = test system: COLO 205 colon
NCI-H522 lung = test system: NCI-H522 lung
DMS 114 small cell lung = test system: DMS 114 small cell lung
HT29 colon = test system: HT29 colon
SN12C renal = test system: SN12C renal
MALME-3M melanoma = test system: MALME-3M melanoma
CCRF-CEM leukemia = test system: CCRF-CEM leukemia
KM12 colon = test system: KM12 colon
SF-295 CNS = test system: SF-295 CNS
SK-MEL-2 melanoma = test system: SK-MEL-2 melanoma
EKVX NSCLC = test system: EKVX NSCLC
SF-539 CNS = test system: SF-539 CNS
CAKI-1 renal = test system: CAKI-1 renal
XF 498 CNS = test system: XF 498 CNS
OVCAR-8 ovarian = test system: OVCAR-8 ovarian
NCI-H23 lung = test system: NCI-H23 lung
KM20L2 colon = test system: KM20L2 colon
HCT-15 colon = test system: HCT-15 colon
DLD-1 colon = test system: DLD-1 colon
NCI-H226 lung = test system: NCI-H226 lung
A498 renal = test system: A498 renal
NCI-H460 lung = test system: NCI-H460 lung
HOP-62 NSCLC = test system: HOP-62 NSCLC
HL-60(TB) leukemia = test system: HL-60(TB) leukemia
UACC-257 melanoma = test system: UACC-257 melanoma
SNB-75 CNS = test system: SNB-75 CNS
DMS 273 small cell lung = test system: DMS 273 small cell lung
RPMI-8226 leukemia = test system: RPMI-8226 leukemia
LOX IMVI melanoma = test system: LOX IMVI melanoma
HCT-116 colon = test system: HCT-116 colon

Measured: TGI

COc1cccc(/C=C(\NC(C)=O)c2nc3ccc(Cl)cc3[nH]2)c1
not listed: NCI-H226 lung | A498 renal | NCI-H460 lung | HOP-62 NSCLC | HL-60(TB) leukemia | UACC-257 melanoma | SNB-75 CNS | DMS 273 small cell lung | RPMI-8226 leukemia | LOX IMVI melanoma | HCT-116 colon
> 100 µM: all other assays above

COC1=CC(=O)[C@]2(C)[C@H](C1=O)C(C)[C@H]2c1ccc(OC)cc1 (stereo not given in full)
not listed: DMS 114 small cell lung | SN12C renal | KM20L2 colon | HCT-116 colon
> 100 µM: all other assays above

COc1ccc(N2C(Cl)C(=O)C2c2c[nH]c3ccccc23)cc1 (stereo not given)
not listed: ACHN renal | SNB-78 CNS | 786-0 renal | HCC-2998 colon | CAKI-1 renal | HCT-15 colon | DLD-1 colon | NCI-H226 lung | A498 renal | DMS 273 small cell lung | LOX IMVI melanoma
> 100 µM: all other assays above
